From ChEMBL document CHEMBL4342527, “Discovery of Novel Fungal Lanosterol 14α-Demethylase (CYP51)/Histone Deacetylase Dual Inhibitors to Treat Azole-Resistant Candidiasis” (J Med Chem, 2020)
Converted amounts (≈) assume the structure as drawn. The source made the active and inactive calls. The rule behind the calls is not given here.

Assays:
Candida albicans [1] = experiment: Antifungal activity against azole-resistant Candida albicans 7781 after 48 hrs by spectrophotometry-based serial microdilution method; format: functional; details: Candida albicans, 7781, 48 h
Candida albicans [2] = experiment: Antifungal activity against Candida albicans 0304103 assessed as inhibition of yeast to hypha morphological transition at 8 ug/ml after 4 hrs by differential interference contrast microscopic analysis relative to control; format: functional; details: Candida albicans, 0304103, 4 h
Candida albicans [3] = experiment: Antifungal activity against azole-resistant Candida albicans 0304103 after 48 hrs by spectrophotometry-based serial microdilution method; format: functional; details: Candida albicans, 0304103, 48 h
Candida tropicalis = experiment: Antifungal activity against azole-resistant Candida tropicalis 5008 after 48 hrs by spectrophotometry-based serial microdilution method; format: functional; details: Candida tropicalis, 5008, 48 h
Candida albicans [4] = experiment: Antifungal activity against azole-resistant Candida albicans 0304103 infected in ICR mouse assessed as inhibition of fungal infection in kidney at 20 mg/kg, po qd for 5 days and measured on day 6 by periodic acid schiff staining-based histological analysis; format: functional, organism-based
Cryptococcus neoformans = experiment: Antifungal activity against azole-sensitive Cryptococcus neoformans H99 after 72 hrs by spectrophotometry-based serial microdilution method; format: functional, var grubii H99; details: Cryptococcus neoformans, var grubii H99 , 72 h; read-out: MIC80
Candida albicans [5] = experiment: Antifungal activity against azole-resistant Candida albicans 0304103 infected in ICR mouse assessed as inhibition of filamentation at 20 mg/kg, po qd for 5 days and measured on day 6 by periodic acid schiff staining-based histological analysis; format: functional, organism-based
Candida albicans [6] = experiment: Inhibition of biofilm formation in azole resistant Candida albicans 0304103 after 24 hrs by XTT assay; format: functional, organism-based
[7] = Selectivity index, ratio of IC50 for human A549 cells to MIC80 for azole-resistant Candida albicans 4108; format: toxicity
[8] = Selectivity index, ratio of IC50 for HUVEC to MIC80 for azole-resistant Candida albicans 0304103; format: toxicity; details: human
Candida albicans [9] = experiment: Inhibition of HDAC in azole-resistant Candida albicans 0304103 assessed as reduction in CDR1 gene expression at 32 ug/ml after 16 hrs by SYBR Green-1 dye based RT-PCR analysis; details: 304103
[10] = Selectivity index, ratio of IC50 for HUVEC to MIC80 for azole-resistant Candida albicans 4108; format: toxicity; details: human
Candida albicans [11] = experiment: Antifungal activity against azole-resistant Candida albicans 0304103 infected in ICR mouse assessed as reduction in fungal burden in kidney by measuring colony forming units at 20 mg/kg, ip qd for 5 days measured 24 hrs post-last dose (reference value: 6.89 log10CFU/g); format: functional
[12] = Selectivity index, ratio of IC50 for human A549 cells to MIC80 for azole-resistant Candida albicans 7781; format: toxicity
Candida albicans [13] = experiment: Antifungal activity against azole-resistant Candida albicans 4108 after 48 hrs by spectrophotometry-based serial microdilution method; format: functional; details: Candida albicans, 4108, 48 h
Candida albicans [14] = experiment: Antifungal activity against azole-sensitive Candida albicans SC5314 after 48 hrs by spectrophotometry-based serial microdilution method; format: functional; details: Candida albicans, SC5314, 48 h; read-out: MIC80
[15] = Selectivity index, ratio of IC50 for human A549 cells to MIC80 for azole-resistant Candida tropicalis 5008; format: toxicity
[16] = biological target: Lanosterol 14-alpha demethylase (Candida albicans (strain SC5314 / ATCC MYA-2876) (Yeast), UniProt P10613); experiment: Inhibition of CYP51 in azole-resistant Candida albicans 0304103 assessed as obtusifoliol level at 0.5 ug/ml after 24 hrs by GC-MS analysis relative to control; design: scale not given: the % may be the effect or the level left
Candida albicans [17] = experiment: Fungistatic activity agaisnt Candida albicans 0304103 at 16 ug/ml preincubated for up to 24 hrs followed by replating on SDA plate and measured after 48 hrs by time kill assay; format: functional, organism-based
Candida albicans [18] = experiment: Antifungal activity against Candida albicans 0304103 assessed as inhibition of yeast to hypha morphological transition at 1 ug/ml after 4 hrs by differential interference contrast microscopic analysis relative to control; format: functional; details: Candida albicans, 0304103, 4 h
Candida albicans [19] = experiment: Inhibition of HDAC in azole-resistant Candida albicans 0304103 assessed as reduction in MDR1 gene expression at 32 ug/ml after 16 hrs by SYBR Green-1 dye based RT-PCR analysis; details: 304103

Chain of Lanosterol 14-alpha demethylase (P10613 whole entry): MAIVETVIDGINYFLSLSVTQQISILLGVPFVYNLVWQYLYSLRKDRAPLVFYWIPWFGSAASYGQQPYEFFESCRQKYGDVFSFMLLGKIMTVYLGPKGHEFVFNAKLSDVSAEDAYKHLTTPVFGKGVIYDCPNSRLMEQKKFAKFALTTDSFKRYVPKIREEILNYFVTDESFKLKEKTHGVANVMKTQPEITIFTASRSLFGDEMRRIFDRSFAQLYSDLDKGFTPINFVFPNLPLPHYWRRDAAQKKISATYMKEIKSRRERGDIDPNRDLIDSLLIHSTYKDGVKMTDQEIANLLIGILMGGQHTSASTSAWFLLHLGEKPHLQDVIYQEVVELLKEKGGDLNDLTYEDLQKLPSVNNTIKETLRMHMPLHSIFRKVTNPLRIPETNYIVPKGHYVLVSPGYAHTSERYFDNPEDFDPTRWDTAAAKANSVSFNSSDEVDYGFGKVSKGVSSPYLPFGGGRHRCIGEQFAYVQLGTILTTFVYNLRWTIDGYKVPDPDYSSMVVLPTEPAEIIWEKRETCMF

SMILES | MIC80 (Candida albicans [1]) [µg/mL] | MIC80 (Candida albicans [3]) [µg/mL] | MIC80 (Candida tropicalis) [µg/mL] | inhibition (Candida albicans [4]) | MIC80 (Cryptococcus neoformans) [µg/mL] | inhibition (Candida albicans [5]) | inhibition (Candida albicans [6]) | selectivity ratio [7] | selectivity ratio [8] | inhibition (Candida albicans [9]) | selectivity ratio [10] | Activity (Candida albicans [11]) [log10CFU/g] | selectivity ratio [12] | MIC80 (Candida albicans [13]) [µg/mL] | MIC80 (Candida albicans [14]) [µg/mL] | selectivity ratio [15] | further results
CN(Cc1ccc(-n2cnn(CCCCc3ccc(C(=O)NO)cc3)c2=O)cc1)CC(O)(Cn1cncn1)c1ccc(F)cc1F (racemic) | 2 (≈ 3.16 µM) | 2 (≈ 3.16 µM) | 8 (≈ 12.6 µM) | Active | 2 (≈ 3.16 µM) | Active | Dose-dependent effect | 2 to 16 | 2 to 16 | Active | 2 to 16 | 4.49 | 2 to 16 | 8 (≈ 12.6 µM) | 4 (≈ 6.32 µM) | 2 to 16 | inhibition at 8 µg/mL (Candida albicans [2]): 100%
CN(Cc1ccc(OCCCOc2ccc(CC(=O)NO)cc2)cc1)CC(O)(Cn1cncn1)c1ccc(F)cc1F (racemic) | 0.5 (≈ 0.86 µM) | 0.25 (≈ 0.43 µM) | 0.25 (≈ 0.43 µM) | Active | 0.5 (≈ 0.86 µM) | Active | Dose-dependent effect | 2 to 16 | 2 to 16 | Active | 2 to 16 | 6.16 | 2 to 16 | 0.5 (≈ 0.86 µM) | 0.125 (≈ 0.215 µM) | 2 to 16 | Activity [16]: 7.59%; Activity (Candida albicans [17]): Active; inhibition at 1 µg/mL (Candida albicans [18]): 100%; inhibition (Candida albicans [19]): Active
